The text below walks through data of patent publication US4044043A, “Derivatives of 9-oxo-13-trans-prostenoic acid esters” (American Cyanamid Company, priority 1975, dated 1977).

Each structure is given as a SMILES string. In brackets after ≈: the same amount, converted by molar mass.

The subject of the first assay is diastolic blood pressure. The assay is described as follows: Prostaglandin-like hypotensive activity in anesthetized rats (minimal dose for about 10 mm. decrease in diastolic blood pressure). Format: in vivo, Male Wistar strain rats. To be noted: Rattus norvegicus; intravenous; decrease of about 10 mm. in diastolic blood pressure. As to the method: This procedure is a modification of the technique described by Pike et al., Prostaglandins, Nobel Symposium 2, Stockholm, June, 1966; p, 165.
Male Wistar strain rats (Royal Hart Farms) averaging approximately 250 grams in weight were fastened to rat boards in a supine position by means of canvas vests and limb ties. The femoral area was infiltrated subcutaneously with lidocaine and the iliac artery and vein exposed and cannulated. Arterial blood pressure (systolic/diastolic) was recorded using a Statham P23 Db pressure transducer-Offner dynograph system. To obtain a stable blood pressure, the animals were anesthetized before use with pentobarbital, 30 mg./kg. of body weight intravenously, and also were given hexamethonium bitartrate, 2 mg./kg. of body weight intravenously. The test compounds were prepared by ultrasonic dispersion in a saline-Tween 80 ® vehicle. A constant intravenous dose volume of 0.5 ml. was administered and test doses ranged from 0.1 to 10.0 mg./kg. of body weight. Increasing or decreasing doses were selected depending on the dose response obtained. In Table I below are set forth the minimal doses required to produce a decrease of about 10 mm. in diastolic blood pressure for typical compounds of the present invention.
Consider `CC[S+]([O-])CCC/C=C/[C@@H]1CCC(=O)[C@H]1CCCCCCC(=O)O` (relative stereo) [9-oxo-18-oxythia-13-trans-prostenoic acid], for which the minimal effective dose (commonly the smallest amount tested that counted as effective) lay in the range of 2 to 8 mg/kg.
The same measure, in the same setting: next, `CCCCCC/C=C/[C@H]1CCCC(=O)[C@@H]1CCCCCCC(=O)OCC` (relative stereo) [ethyl 9-oxo-10a-homo-13-trans-prostenoate]: 2 mg/kg; `CC/C=C\CC/C=C/[C@H]1CCC(=O)[C@@H]1CCCCCCC(=O)OCC` (relative stereo) [ethyl 9-oxo-13-trans-17-cis-prostadienoate]: 0.2 to 2 mg/kg; `CCCCCC/C=C/[C@H]1CCC(=O)[C@@H]1CCCCCCC(=O)OCC` (relative stereo) [ethyl 9-oxo-13-trans-prostenoate]: 0.5 mg/kg.
On the same count and under the same terms, next, `CCCCCCC/C=C/[C@H]1CCC(=O)[C@@H]1CCCCCCC(=O)OCC` (relative stereo) [ethyl 20-methyl-9-oxo-13-trans-prostenoate]: 0.5 mg/kg.

The test system of the next assay is Mycobacterium smegmatis ATCC 606. In words: agar-dilution streak-plate antimicrobial assay. Format: cell-based. To be noted: Mycolicibacterium smegmatis, ATCC606, read-out: Minimal inhibitory conc. (6). The method, then: The novel compounds of the present invention are also useful as antimicrobial agents. […] In this assay, the compounds to be tested are made up to contain 2.5 mg. of test compound per milliliter of solution. Observing sterile techniques, two-fold serial dilution are made of each test solution. One milliliter of each of the original solutions and of each of the serial dilutions is then added to 9 ml. of warm sterile nutrient agar capable of supporting growth of the bacterial test cultures. A second set of agar dilutions is prepared identical to the first except that the nutrient agar is designed to support the growth of the fungal test cultures. […] The test bacteria and yeast-like fungi are prepared for use by growing in broth overnight. The spores of the filamentous fungi are harvested from mature agar slant cultures and are suspended in sterile physiological saline solution. A loopful of each of the resulting live suspensions is then, still employing sterile techniques, streaked upon the surfaces of each of the agar plates and the resulting streaked plates are then incubated. After an appropriate period of time, each of the streaks on each of the plates is inspected visually and the extent, if any, of bacterial or fungal growth is noted. The minimal inhibitory concentration (expressed in micrograms per milliliter) is defined as the concentration of test compound causing complete inhibition of growth of any particular organism. In a representative operation, and merely by way of illustration, the minimal inhibitory concentration of typical compounds of the present invention against a variety of test organisms as determined in the above-described assay are set forth in Tables II and III below: […]
`CCCCCC/C=C/[C@H]1CCC(=O)[C@@H]1CCCCC(=O)OCC` (relative stereo) [ethyl 9-oxo-6,7-dinor-13-trans-prostenoate]: the MIC is 250 µg/mL (≈ 775 µM).
Still for that read-out and setting: the figure for `CCCCCC/C=C/[C@H]1CCC(O)[C@@H]1CCCCCCC(=O)OCC` (stereo partly drawn) [ethyl 9-hydroxy-13-trans-prostenoate, ethyl 9α- and 9β-hydroxy-13-trans-prostenoate] is 25 µg/mL (≈ 70.9 µM).

In another assay the test system is gastric acid secretion. The assay is described as follows: Inhibition of Gastric Acid Secretion (Pylorous-Ligated Rat), Shay rat procedure. To be noted: 100 mg./kg. intraduodenal, read-out: % Inhibition of Control Gastric Acid Secretion. In kind it is in vivo, rats (male, CFE strain). From the text: The novel compounds of the present invention are also effective inhibitors of gastric acid secretion and of ulcer development in experimental animals, and thus are potentially valuable as agents for the control of gastric acid secretion and of gastric erosion and as anti-ulcer agents. Gastric acid secretion inhibitory action is usually measured by the Shay rat procedure ^(1,2) with some modifications as follows. 6 1. Shay et al., Gastroenterology, 5, 43 (1945). 6 2. Shay et al., Gastroenterology, 26, 906 (1954).
The rats (male, CFE strain) were starved for 48 hours (water was given ad libitum) to permit evacuation of stomach contents. On the morning of the experiment, under ether anesthesia, the abdominal region was shaved and a midline incision (1-1 1/2 inch) was made with a scalpel. With the help of a closed curved hemostat the duodenum was picked up. Upon getting the duodenum into view fingers were used to pull the stomach through the opening, the stomach was then gently manipulated with fingers to rid stomach of air and residual matter which were pushed through the pylorus. Two 5-inch sutures were drawn under the pyloric-duodenal puncture. A ligature, at the juncture, was formed with one of the threads. The second ligature was also formed but not tightened.
The test compound or the vehicle, usually 1 ml./100 g. body weight, were injected into the duodenum as close as possible to the first ligature. After injection the second ligature was tightened below the injection site to minimize leakage. The stomach was placed back through the opening into the abdominal cavity, the area of incision was washed with saline and the incision was closed with autoclips. (Ocasionally instead of an intraduodenal injection, animals were dosed by the oral or subcutaneous route. In the latter case, dosing was done thirty to sixty minutes before the operation).
The abdominal cavity was exposed by cutting with scissors and the esophagus close to the stomach was clamped off with a hemostat, the stomach was removed by cutting above the hemostat (the esophagus was cut) and between the two sutures. Extraneous tissue was removed, the stomach washed with saline and blotted on gauze. A slit was carefully made in the stomach which was held over a funnel and the contents were collected in a centrifuge tube. The stomach was further cut along the outside edge and turned inside out. Two ml. of water were used to wash the stomach contents into the respective centrifuge tube. The combined stomach contents and wash were then centrifuged out for 10 minutes in the International Size 2 Centrifuge (setting at 30). The supernatant was collected, volume measured and recorded, 2 drops of phenolphthalein indicator (1% in 95% ethanol) were added and the solution was titrated with 0.02N NaOH (or with 0.04N NaOH when large volumes of stomach contents were encountered) to pH 8.4 (because of usual coloring of the stomach contents, phenolphthalein was only used to permit visual indication that the end point was near) and the amount of acid present was calculated.
Compounds inducing inhibition of gastric acid secretion of 20% or more were considered active. In a representative operation, and merely by way of illustration, the results obtained with this assay with typical compounds of the present invention are given in Table IIIA.
`CCCCCC/C=C/[C@@H]1CCC(=NNc2cc(Cl)ccc2Cl)[C@H]1CCCCCCC(=O)O` (relative stereo) [9-Oxo-13-trans-prostenoic acid 2,5-dichlorophenylhydrazone]: the inhibition in vivo at 100 mg/kg stood at 30%.
Still for that read-out and setting: next, `CCC/C=C/[C@@H]1CCCC(=O)[C@H]1CCCCCCC(=O)O` (relative stereo) [9-oxo-18,19,20-trinor-10a-homo-13-trans-prostenoic acid]: 39%; `CCCCCC/C=C/[C@@H]1CCC(=O)[C@H]1CCCCCCC(=O)OCCCC` (relative stereo) [butyl 9-oxo-13-trans-prostenoic acid]: 46%.
On the same count and under the same terms, the figure for `CCC/C=C/[C@@H]1CCC(=O)[C@H]1CCCCOCC(=O)OCC` (relative stereo) [ethyl 9-oxo-3-oxa-18,19,20-trinor-13-trans-prostenoate] is 65%.
Still for that read-out and setting: next, `CCCCCC/C=C/[C@@H]1CCC(=O)[C@H]1CCCCSCC(=O)OCC` (relative stereo) [ethyl 9-oxo-3-thia-13-trans-prostenoate]: 39%; `CCCCCC/C=C/[C@H]1CCCC(=O)[C@@H]1CCCCCCC(=O)OCC` (relative stereo) [ethyl 9-oxo-10a-homo-13-trans-prostenoate]: 46%; `CCCCCC/C=C/[C@H]1CCC(=O)[C@@H]1CCCCCCC(=O)OCC` (relative stereo) [ethyl 9-oxo-13-trans-prostenoate]: 28%.
For the compound `CCC/C=C/[C@H]1CCCC(=O)[C@@H]1CCCCCCC(=O)OCC` (relative stereo) [ethyl 9-oxo-18,19,20-trinor-10a-homo-13-transprostenoate], the inhibition in vivo at 100 mg/kg was determined as 37%.
Consider `CCOC(=O)CCCCCC[C@H]1C(=O)CC[C@@H]1/C=C/CCCS(=O)(=O)CC` (relative stereo) [ethyl 9-oxo-18-dioxythia-13-trans-prostenoate], for which the inhibition in vivo at 100 mg/kg came to 34%.
Still for that read-out and setting: next, `CCCCCCC/C=C/[C@H]1CCC(=O)[C@@H]1CCCCCCC(=O)OCC` (relative stereo) [ethyl 20-methyl-9-oxo-13-trans-prostenoate]: 36%; `CCCCCCC=CC1CC(c2ccccc2)C(=O)C1CCCCCCC(=O)OCC` (stereo not drawn) [Ethyl 9-oxo-10-phenyl-13-trans-prostenoate]: 24%.
On the same count and under the same terms, the figure for `CCCCCCC=CC1CC(F)C(=O)C1CCCCCCC(=O)OCC` (stereo not drawn) [Ethyl 10-fluoro-9-oxo-13-trans-prostenoate] is 25%; for `CCCCCCC=CC1CC(SC)C(=O)C1CCCCCCC(=O)OCC` (stereo not drawn) [Ethyl 10-methylthio-9-oxo-13-trans-prostenoate] it is 35%; for `CCCC=CC1CCC(=O)C1CCCCCC(F)C(=O)OCC` (stereo not drawn) [ethyl 9-oxo-2-fluoro-18,19,20-trinor-13-trans-prostenoate] it is 84%.

Another assay relates to dl-PGE1-induced contraction of gerbil colon. The assay is described as follows: Inhibition of dl-PGE1-Induced Contraction of Gerbil Colon (prostaglandin antagonist action). Format: cell-based, gerbils (Meriones unguiculatus). The conditions noted are these: Meriones unguiculatus, 1 min; sub-maximal challenge, 20 ng./ml. dl-PGE1; 50% inhibition of maximum response; read-out: ID50 vs. 20 ng. of PGE1/ml. The method, then: The compounds of this invention are also useful as antagonists of prostaglandin action and accordingly they are potentially useful as anti-inflammatory agents, and as agents for the treatment of periodontal diseases and diarrhea. Testing for prostaglandin antagonist action is carried out in the following manner. Sections of ascending colon, approximately 20 mm. long, from mature male gerbils (Meriones unguiculatus) weighing 70-80 g. were mounted in De Jalon's solution (154 mM NaCl; 5.95 mM NAHCO3; […], 5.64 mM KC and .27 mM CaCl2 in 20 ml. tissue baths) (L and K Glass Co., Lynnhurst, N.J.). The medium was continually gassed with a mixture of 95% 02 -5% CO2 and maintained at 37° C. The tissues were suspended via silk suture threads between a glass hook at the base and a model FT .03C force displacement transducer (Grass Instruments, Quincy, Massachusetts). Contractions were recorded on a Poly-Viso ® polygraph (Sanborn Co., Cambridge, Massachusetts). After mounting, tissues were allowed to stabilize 15-20 minutes during which time adjustments were made to establish and maintain a 0.5 g. resting tension on the muscle. Thereafter, test cycles of 3-5 minutes were begun and consisted of a 1 minute exposure to the potential antagonist, if called for, followed by a 1 minute exposure to the prostaglandin agonist, a 15-30 sec. washout and a recovery period of 2-2.5 minutes. […] During the washout period, the tissue was rinsed with a measured amount equalling 8 volumes of medium. Muscle relaxation was virtually complete by the end of the washout period. During preliminary tests it was noted that a final concentration of 200 ng./ml. of a racemic mixture of synthetic prostaglandin-E1 (dl-PGE1) produced maximal muscle contraction. Following stabilization, muscles were exposed 2 to 3 times to this concentration of dl-PGE1 until a consistent response was recorded. Once maximal responses were established, test cycles with potential antagonists were commenced and were followed alternately with prostaglandin-only test cycle. […] The contraction of the muscle induced by 200 ng./ml. dl-PGE1 following exposure to a given concentration of the potential antagonist was always compared to the response of the tissue to that level of dl PGE1 in the immediately preceding cycle. Using a series of potential antagonist concentrations, an approximate ID50 (concentration at which 50% inhibition was observed) was established. The compounds were also tested against a sub-maximal prostaglandin challenge (20 ng./ml. dl-PGE1) in which case activity is reported in terms of a 50% inhibition of maximum response.
As for `CCC/C=C/[C@@H]1CCCC(=O)[C@H]1CCCCCCC(=O)O` (relative stereo) [9-oxo-18,19,20-trinor-10a-homo-13-trans-prostenoic acid], the IC50 was determined as 1 µg/mL (≈ 3.4 µM).
For the compound `CC(C)/C=C/[C@H]1CCC(=O)[C@@H]1CCCCCCC(=O)O` (relative stereo) [15-methyl-9-oxo-17,18,19,20-tetranor-13-trans-prostenoic acid], the IC50 fell in the range of 25 to 30 µg/mL (≈ 89.2 to 107 µM).
In the case of `CCCCCCC=CC1CC(C#N)C(=O)C1CCCCCCC(=O)OCC` (stereo not drawn) [Ethyl 10-cyano-9-oxo-13-trans-prostenoate], the IC50 is 10 to 25 µg/mL (≈ 26.6 to 66.6 µM).

The assay is the same for the next values; noted with them: agonist alone, preliminary tests.
With `CCCCC[C@H](O)/C=C/[C@H]1[C@H](O)CC(=O)[C@@H]1CCCCCCC(=O)O` (relative stereo) [dl-PGE1, prostaglandin-E1, reference compound], the “final concentration that produced maximal muscle contraction” value was 200 ng/mL.
